How the values were obtained:
Type in all cases: cell-based, human
HNDFs [1] = test: Trypan blue exclusion cell proliferation assay in HNDFs; conditions: antcins 10 μM + HG 30 mM, 72 h, trypan blue exclusion
Description: To further clarify the effect of antcins, HG-induced reduction in cell proliferation is determined. In FIG. 2D, to determine the effect of antcins on cell proliferation efficacy, 5×10^4 cells/well of HNDFs are incubated with antcins in 6-well plates in the presence of HG (30 mM) for 72 h. Number of viable cells is quantified by the tryphan blue exclusion method. Results are expressed as mean±S.E.M of three indipendent expriments. Statistical significance is set at ^ϕP<0.05 as compared to NG vs. HG and *P<0.05 as compared to HG vs. samples. […] Therefore, the molecular mechanism underlying the protective effect of ANM is explored next.
Furthermore, in FIG. 3C, to determine the effect of ANM or NAC on cell proliferation, 5×10^4 cells/well of HNDFs are incubated in a 6-well plate with ANM (10 μM) or NAC (100 μM) in the presence of HG (30 mM) for 72 h. Number of viable cells is quantified by the tryphan blue exclusion method. Results expressed as mean±S.E.M of three independent experiments. Statistical significance is set at ^ϕP<0.05 as compared to NG vs. HG and *P<0.05 as compared to HG vs. samples.
Cell proliferation is evaluated using trypan blue exclusion assay as described previously with minor modification. Cells are plated into 6-well plates at a density of 5×10^4 cells/well. After incubation overnight, cells are treated with test samples in the presence or absence of HG for 24-72 h. Cells exposed to 0.2% Trypan blue are then counted in a hemocytometer, and cells stained with Trypan blue are excluded. Percentage of viable cells is calculated based on the ratio of viable cells to total cell population in each well. The proliferation rate is calculated based on the number of viable cells in HG or sample-treated groups versus the NG-treated group.

HNDFs [2] = test: SA-β-gal senescence assay in HG-induced HNDFs; conditions: for SA-β-gal positive cells: 10 μM compound + HG 30 mM, 72 h, HG alone 9.59-fold (FIG. 2B); for HG-induced SA-β-gal activity, kinase inhibitors: inhibitor 30 μM + HG 30 mM, 72 h (FIG. 4H)
Description: Next, the protective effects of antcins on HG-induced HNDF senescence are examined. In FIG. 2B, cells were incubated with ANA (10 μM), ANH (10 μM) and ANM (10 μM) in the presence of HG (30 mM) for 72 h. Cellular senescence is determined by SA-β-gal activity. […] After cells are co-incubated with HG and antcins (ANA, ANH and ANM) for 72 h, senescence is measured by SA-β-gal assay.
Therefore, in order to examine whether the ROS inhibitory effect may be extended to suppress HG-induced senescence, HG-induced senescenece eliminated by ANM is examined. In FIG. 4B, HNDFs are incubated with ANM (10 μM) or NAC (100 μM) in the presence or absence of HG (30 mM) for 72 h. Cellular senescence is determined by SA-β-gal assay. […] As is shown, cells are co-incubated with HG and ANM or NAC for 72 h.
Senescence-associated β-galactosidase (SA-β-gal) activity is determined in formaldehyde-fixed histochemical staining kit according to the manufacturer's instructions (Cell Signaling Technology, Danvers, Calif.). Briefly, cells are grown in 6-well plates at a density of 5×10^4 cells/well, and incubated with HG or test samples for 48 h (HUVECs) or 72 h (HNDFs). After incubation, cells are stained with SA-β-gal staining solution at pH 6.0 overnight and then the development of blue staining is observed and photographed under a bright-field microscope (Motic Electric Group, Xiamen, P.R. China).

HNDFs (CCD966SK) = test: MTT cytotoxicity of antcins against HNDFs; conditions: for cytotoxicity to HNDFs (in words): MTT, 72 h, up to 20 μM; for IC50: MTT assay, 72 h, 1, 5, 10 and 20 μM tested, read-out: 50% inhibitory concentration (IC50) against HNDFs
Description: Please refer to FIG. 2A˜FIG. 2D, which are views showing HG-induced senescence affected by antcins in HNDFs. As shown in the figures, prior to an investigation, cytotoxicity of antcins against HNDFs is determined. In FIG. 2A, type of antcins are subjected to screen for potential anti-aging agents for skin aging. Names and chemical structures of the antcins are shown in the left and center column, respectively. The cytotoxic effects of antcins against HNDFs are investigated. Briefly, HNDFs are incubated with increasing concentrations (1, 5, 10 and 20 μM) of antcins including ANA, ANB, ANC, ANH, ANK and ANM for 72 h and the cell viability is determined by MTT assay. The 50% inhibitory concentrations (IC50) of each compound against HNDFs are shown in right column.
Cell viability is assessed by MTT colorimetric assay. Briefly, HNDFs (2×10^4cells/well) or HUVECs (5×10^4 cells/well) are seeded in a 24-well culture plate. After treatment with HG (15 and 30 mM) in the presence or absence of samples for 24-72 h, culture media is withdrawn and incubated with MTT (1 mg/mL) in fresh medium for 2 h. The MTT formazan crystals are dissolved in 400 μL of DMSO and the samples are measured at 570 nm […] using an ELISA microplate reader (Bio-Tek Instruments, Winooski, Vt.). The percentage of cell viability (%) is calculated as (A570 of treated cells/A570 of untreated cells)×100.

[3] = test system: p16^INK4A, p21^CIP1 and SMP30; test: Western blot of senescence-associated marker proteins in HNDFs; conditions: 10 μM + HG 30 mM, 72 h, western blot
Description: In addition, in FIG. 2C, HNDFs are incubated with ANA (10 μM), ANH (10 μM) and ANM (10 μM) in the presence of HG (30 mM) for 72 h. Senescence-associated marker proteins such as p16^INK4A, p21^CIP1 and SMP30 are determined by western blot analysis.
In order to assess the cellular and molecular basis of the ANM-mediated inhibition of senescence, the expression levels of senescence-associated marker proteins including, p16^INK4A and p21^CIP1 are examined. In FIG. 4D, to determine the effect of ANM on senescence-associated protein expression, HNDFs are incubated with ANM (10 μM) or NAC (100 μM) in the presence or absence of HG (30 mM) for 72 h. Immunoblotting analysis is used to determine the protein levels with corresponding specific antibodies.
(§1) Cells are lysed by either RIPA lysis buffer or nuclear and cytoplasmic extraction reagents (Thermo Fisher Scientific). Protein concentrations are determined by Bio-Rad protein assay reagent (Bio-Rad Laboratories, Hercules, Calif.). Equal amounts of protein samples (60 μg) are separated by 7-12% SDS-PAGE and the separated proteins are transferred onto polyvinylidene […] (PVDC) membrane overnight. The transferred protein membranes are blocked with 5% non-fat dried milk for 30 min, followed by incubation with specific primary antibodies overnight, and either horseradish peroxidase-conjugated goat anti-rabbit or anti-mouse antibodies for 2 h. The blots are detected using VL Chemi-Smart 3000 (Viogene Biotek, Sunnyvale, Calif.) with the enhanced chemiluminescence (ECL) western blotting reagent (Millipore, Billerica, Mass.).

p53 and FoxO1 = test: Western blot of p53 and FoxO1 acetylation/phosphorylation in HNDFs; conditions: pharmacological inhibitor in the presence of HG (FIG. 4G)
Description: It is well known that p16^INK4A and p21^CIP1 are regulated by transcription factors p53 and FoxO1 followed by acetylation. […] In addition, p53 phosphorylation at Ser15 by their upstream kinases promotes transcriptional activation in response to DNA damage.
To further examine the phenomenon that HG-induced p53 activation is relayed by the p38 MAPK or JNK/SAPK cascade, cells are incubated with corresponding pharmacological inhibitors, SB203580, SP600125, PD98059 and LY294002 for p38MAPK, JNK/SAPK, ERK1/2 and P13K/AKT, respectively in the presence of HG.
(§2) The protein expression levels of SIRT-1, SIRT-6, p21^CIP1, SMP30, p53, FoxO and acetylation of p53 and FoxO1 are determined by western blot analysis.
as §1

Nrf2 = test: ARE luciferase reporter assay (Nrf2 transcriptional activity) in HNDFs; conditions: inhibitor 30 μM 2 h, then ANM 10 μM + HG 30 mM 6 h
Description: Therefore, to determine whether ANM augments Nrf2 transcriptional activity, ARE-harboring luciferase reporter assay is used. In FIG. 5E, to determine the Nrf2 transcriptional activity, HNDFs are transiently transfected with ARE promoter construct using lipofectamine and incubated with ANM (10 μM) or NAC (100 μM) in the presence or absence of HG (30 mM) for 6 h. Cell lysates are mixed with luciferase reagents and quantified using an illuminometer. Relative ARE promoter activity is calculated by dividing the relative luciferace unit (RLU) of treated cells by RLU of untreated cells (NG).
Activation of P13K/AKT and mitogen-activated protein kinases (MAPKs), including ERK1/2, JNK/SAPK and p38 MAPK, facilitates Nrf2 transcriptional activation in a variety of human cell lines. […] To elucidate the upstream signaling events involved in ANM-induced Nrf2 transcriptional activity, cells are pre-incubated with pharmacological inhibitors of P13K/AKT (LY294002), ERK1/2 (PD98059), SAPK/JNK (SP600125) and p38MAPK (SB203580) for 2 h and treated with ANM for 6 h in the presence of HG. In FIG. 5G, HNDFs are pre-incubated with AKT, ERK1/2, JNK/SAPK and p38 MAPK inhibitors, including LY294002 (LY, 30 μM), PD98059 (PD, 30 μM), SP600125 (SP, 30 μM) and SB203580 (SB, 30 μM), respectively, for 2 h and then incubated with ANM (10 μM) in the presence of HG (30 mM) for 6 h. Cytoplasmic and nuclear fractions are prepared and subjected to western blot analysis. GAPDH and histone H3 are served as internal controls for the cytoplasmic and nuclear fraction, respectively.
ARE promoter activity is measured using a dual-luciferase reporter assay system (Promega, Madison, Wis.). […] Cells are then transfected with ARE plasmid (Qiagen, Hilden, Germany) using Lipofectamine 2000 (Invitrogen) and incubated for 36 h. […] The cell lysate is prepared and incubated with luciferase agents and the relative luminescence intensity is quantified using a spectrophotometer (Hidex Oy, Turku, Finland).

SIRT-1, SIRT-3, SIRT-6 = test: Western blot of SIRT proteins and phos-SIRT-1 in HNDFs; conditions: inhibitor 30 μM + HG, 72 h
Description: Total cell lysate is extracted and subjected to western blot analysis to monitor SIRT-1, SIRT-3, SIRT-6 protein levels.
as §2
To further understand the regulation of SIRT-1 by ANM, the effect of ANM on SIRT-1 activation and protein stability is examined under hyperglycemic conditions. In FIG. 7I, cells are incubated with JNK/SAPK or p38 MAPK inhibitors SP600125 (SP, 30 μM) and SB203580 (SB, 30 μM) in the presence of HG for 72 h. The protein expression levels of phos-SIRT-1 and SIRT-1 are determined by western blotting. Results are expressed as mean±S.E.M of three independent experiments. Statistical significance is set at ^ϕP<0.05 as compared to NG vs. HG and *P<0.05 as compared to HG vs. samples. Previous studies have shown that hyperphosphorylation of SIRT-1 at serine 47 (Ser47) is correlated with enhanced endothelial senescence. In addition, persistent activation of JNK1/2 by multiple factors including hyperglycemia induces extensive SIRT-1 proteasome degradation followed by phosphorylation at Ser47. […] Therefore, it is hypothesized that ANM-mediated suppression of JNK1/2 and p38 MAPK activation may have a functional role in the stability of SIRT-1 protein.
as §1

## C=C(CC[C@@H](C)[C@H]1CC[C@H]2C3=C(C(=O)C[C@]12C)[C@@]1(C)CCC(=O)[C@@H](C)[C@@H]1CC3)C(C)C(=O)O (some centres unmarked) [ANA, antcin A]
HNDFs [1]
  cell proliferation (number of viable cells) vs HG group: partially increase
HNDFs [2]
  SA-β-gal positive cells: 7.46 fold
HNDFs (CCD966SK)
  cytotoxicity to HNDFs (in words): did not show significant cytotoxicity
[3]
  HG-induced p16^INK4A and p21^CIP1 protein expression: moderate inhibition

## C=C(CC[C@@H](C)[C@H]1CC[C@H]2C3=C(C(=O)C[C@]12C)[C@@]1(C)CCC(=O)[C@@H](C)[C@@H]1CC3=O)[C@H](C)C(=O)O [ANB, antcin B]
HNDFs (CCD966SK)
  IC50: 7.11 µM
  cytotoxicity to HNDFs (in words): strong cytotoxicity

## C=C(CC[C@@H](C)[C@H]1CC[C@H]2C3=C(C(=O)C[C@]12C)[C@@]1(C)CCC(=O)[C@@H](C)[C@@H]1C[C@@H]3O)[C@H](C)C(=O)O [ANC, antcin C]
HNDFs (CCD966SK)
  cytotoxicity to HNDFs (in words): did not show significant cytotoxicity

## C=C(CCC(C)C1CCC2C3=C(C(=O)C(O)C21C)C1(C)CCC(O)C(C)C1CC3=O)C(C)C(=O)O (centres unmarked) [ANH, antcin H]
HNDFs [1]
  cell proliferation (number of viable cells) vs HG group: partially increase
HNDFs [2]
  SA-β-gal positive cells: 8.13 fold
HNDFs (CCD966SK)
  cytotoxicity to HNDFs (in words): did not show significant cytotoxicity
[3]
  HG-induced p16^INK4A and p21^CIP1 protein expression: moderate inhibition

## C=C(CC[C@@H](C)[C@H]1CC[C@H]2C3=C(C(=O)C[C@]12C)[C@@]1(C)CC[C@@H](O)[C@](C)(O)[C@@H]1C[C@@H]3O)C(C)C(=O)O (some centres unmarked) [ANK, antcin K]
HNDFs (CCD966SK)
  IC50: 2.89 µM
  cytotoxicity to HNDFs (in words): strong cytotoxicity

## COc1cccc(-c2cc(=O)c3ccccc3o2)c1N [PD98059, reference compound]
HNDFs [2]
  HG-induced SA-β-gal activity, kinase inhibitors: does not affect
p53 and FoxO1
  HG-induced p16^INK4A expression and p53 phosphorylation, kinase inhibitors: fails to protect
Nrf2
  ANM-induced ARE luciferase activity after inhibitor pretreatment: effectively suppresses

## C[S+]([O-])c1ccc(-c2nc(-c3ccncc3)c(-c3ccc(F)cc3)[nH]2)cc1 (centres unmarked) [SB203580, reference compound]
SIRT-1, SIRT-3, SIRT-6
  SIRT-1 phosphorylation and reduction in SIRT-1, kinase inhibitors: inhibits
HNDFs [2]
  HG-induced SA-β-gal activity, kinase inhibitors: barely observed
p53 and FoxO1
  HG-induced p16^INK4A expression and p53 phosphorylation, kinase inhibitors: reduced
Nrf2
  ANM-induced ARE luciferase activity after inhibitor pretreatment: partially or barely inhibits
